According to US20040200144A1, “Plant growth regulator and a method of producing the regulator” (Dainichiseika Color & Chemicals Mfg. Co., Ltd., priority 2003, published 2004):

Key:
Format in all cases: in vivo
geranium young plants = assay: Dwarfing test of geranium young plant; settings: for Plant Height / Dwarfing Rate: 100 ml per pot on 3rd day, measured 44th day; for Dwarfing Rate: vs comparative group
From the text: Dwarfing rate (%)=[(the plant height of the comparative group)−(the plant height of an addition group)/the plant height of the comparative group]×100 In addition, “plant height” in all the tables below was an average of heights from a surface of the soil of a pot used in each test to a head portion of the plant. 160 g of cinnamic acid, 80 g of dispersant (lignin sulfonic sodium) and 293 g of water were mixed, 1,800 g of glass beads (with diameters of 1 to 1.25 mm) were further added, the resultant was added into a vessel of a dispersion apparatus (RM test sand mill with six parallel barrels) and underwent dispersion processing at 120 rpm for three hours, and 30% cinnamic acid dispersion (with the average diameter of cinnamic acid of 0.3 μm) was prepared. The dispersion was diluted with distilled water 300 times or 3,000 times, and thus 0.1% cinnamic acid dispersion and 0.01% cinnamic acid dispersion were prepared, respectively. 30 pots of geranium young plants each with 10 to 12 leaves and a height of 7 cm ware purchased, and placed in a built-up indoor aluminum greenhouse (440×840×1500 mm) at 25° C. On the 3rd day, the cinnamic dispersions as described above were added to the geranium pots. Among 30 pots, 10 pots were prepared as a 0.01% cinnamic acid dispersion addition group, and 100 ml of the 0.01% cinnamic acid dispersion was added to the nursery soil of each pot. Another 10 pots were prepared as a 0.1% cinnamic acid dispersion addition group, and 100 ml of the 0.1% cinnamic acid dispersion was added to the nursery soil of each pot. Remaining 10 pots were prepared as a comparative group, and instead of the cinnamic dispersion, 100 ml of water was added to each pot. Then, the cultivation was continued on the pots in each group under general conditions. The cultivation was continued on geraniums of the pots in each group, and on the 24th day, geraniums in each group started blooming. The cultivation was further continued. On the 44th day after the placement, heights of geraniums of pots in each group were measured, the dwarfing rate (%) was calculated, and the dwarfing effect of cinnamic acid dispersion on geranium young plants was examined. From the results in Table 2, it became evident that the cinnamic acid dispersions are effective in dwarfing geranium young plants.

lettuce young plants = assay: Dwarfing test of lettuce young plant; settings: for Plant Height / Dwarfing Rate: 5 ml per cell on 5th day, measured 20th day; for Dwarfing Rate: vs comparative group
Procedure: (§1) 50 g of sodium tripolyphosphate was dissolved in 400 ml of distilled water at 80° C., 17.5 g of cinnamic acid was added to the sodium tripolyphosphate solution and dissolved by stirring, the resultant solution was diluted with distilled water until the total volume of solution was 500 ml, and thus 3.5% cinnamic acid aqueous solution (pH 6.5) was prepared. The aqueous solution was further diluted with distilled water 70 times or 17.5 times, and 0.05% cinnamic acid aqueous solution and 0.2% cinnamic acid aqueous solution were prepared, respectively.
(§2) Nursery soil for house use was filled into paper joint pots (each with 24 cells: 34×43×50 mm/cell), water was sufficiently given to the soil, and seeds of carrots were sowed. After seeding, the pot was placed in the same greenhouse as described above to sprout. Subsequently, on the 5th day, the cinnamic aqueous acid solutions were added to the nursery soil in the joint pots. One of the joint pots (24 cells) was prepared as a 0.05% cinnamic acid aqueous solution addition group, and 5 ml of the 0.05% cinnamic acid aqueous solution was added to the nursery soil of each cell. Another one of the join pots was prepared as a 0.2% cinnamic acid aqueous solution addition group, and 5 ml of the 0.2% cinnamic acid aqueous solution was added to the nursery soil of each cell. The other one of the joint pots was prepared as a comparative group in which 5 ml of water is added to each cell, instead of the cinnamic acid aqueous solution. Subsequently, the cultivation of carrot young plants in each group was continued under general conditions. On the 27th day, the heights of young plants in each group were measured, the dwarfing rate (%) was calculated, and the dwarfing effect of cinnamic acid aqueous solution on carrot young plants was examined. […].
In the same way as in Example 5 except that seeds of lettuce were sowed, and that heights of young plants in each group were measured on the 20th day, the dwarfing effect of cinnamic acid aqueous solution on lettuce young plants was examined. […]

burdock young plants = assay: Dwarfing test of burdock young plant; settings: for Plant Height / Dwarfing Rate: 5 ml per cell on 4th day, measured 20th day; for Dwarfing Rate: vs comparative group
Procedure: as §1, §2
In the same way as in Example 12 except that seeds of burdock were sowed, the dwarfing effect of cinnamic acid aqueous solution on burdock young plants was examined. […]

melon young plants = assay: Dwarfing test of melon young plant; settings: for Plant Height / Dwarfing Rate: 5 ml per cell on 7th day, measured 25th day; for Dwarfing Rate: vs comparative group
Procedure: After seeding, the pot was placed in the same greenhouse as described above to sprout. Subsequently, on the 5th day, the cinnamic aqueous acid solutions were added to the nursery soil in the joint pots. One of the joint pots (24 cells) was prepared as a 0.05% cinnamic acid aqueous solution addition group, and 5 ml of the 0.05% cinnamic acid aqueous solution was added to the nursery soil of each cell. Another one of the join pots was prepared as a 0.2% cinnamic acid aqueous solution addition group, and 5 ml of the 0.2% cinnamic acid aqueous solution was added to the nursery soil of each cell. […] Subsequently, the cultivation of carrot young plants in each group was continued under general conditions. On the 27th day, the heights of young plants in each group were measured, the dwarfing rate (%) was calculated, and the dwarfing effect of cinnamic acid aqueous solution on carrot young plants was examined. From the results in Table 5, it became evident that the 0.05% and 0.2% cinnamic acid aqueous solutions are effective in dwarfing carrot young plants. In the same way as in Example 5 except that seeds of cauliflower were sowed, the cinnamic acid solutions were added to the nursery soil in the joint pot on the 4th day, and that heights of young plants in each group were measured on the 20th day, the dwarfing effect of cinnamic acid aqueous solution on cauliflower young plants was examined. From the results in Table 12, it became evident that the cinnamic acid aqueous solutions are effective in dwarfing cauliflower young plants. In the same way as in Example 12 except that seeds of tomato were sowed, and that the cinnamic acid solutions were added to the nursery soil of the joint pot on the 7th day, the dwarfing effect of cinnamic acid aqueous solution on tomato young plants was examined. From the results in Table 17, it became evident that the cinnamic acid aqueous solutions are effective in dwarfing tomato young plants. In the same way as in Example 17 except that seeds of melon were sowed, and that plant heights were measured on the 25th day, the dwarfing effect of cinnamic acid aqueous solution on melon young plants was examined. From the results in Table 25, it became evident that the cinnamic acid aqueous solutions are effective in dwarfing melon young plants.

O=C(O)C=Cc1ccccc1 [cinnamic acid]
Plant Height (geranium young plants; 0.01% dispersion): 13.5 cm
Dwarfing Rate (geranium young plants; 0.01% dispersion): 12.9%
Plant Height (geranium young plants; 0.1% dispersion): 6.1 cm
Dwarfing Rate (geranium young plants; 0.1% dispersion): 60.6%
dwarfing effect (geranium young plants; geranium young plants, 0.01% and 0.1% dispersions): effective
Plant Height (lettuce young plants; 0.05% aqueous solution): 5.7 cm
Dwarfing Rate (lettuce young plants; 0.05% aqueous solution): 6.6%
Plant Height (lettuce young plants; 0.2% aqueous solution): 4.3 cm
Dwarfing Rate (lettuce young plants; 0.2% aqueous solution): 29.5%
dwarfing effect (lettuce young plants; lettuce young plants, 0.05% and 0.2% aqueous solutions): effective
Plant Height (burdock young plants; 0.05% aqueous solution): 4.9 cm
Dwarfing Rate (burdock young plants; 0.05% aqueous solution): 21.0%
Plant Height (burdock young plants; 0.2% aqueous solution): 4.3 cm
Dwarfing Rate (burdock young plants; 0.2% aqueous solution): 30.6%
dwarfing effect (burdock young plants; burdock young plants, 0.05% and 0.2% aqueous solutions): effective
Plant Height (melon young plants; 0.05% aqueous solution): 6.3 cm
Dwarfing Rate (melon young plants; 0.05% aqueous solution): 4.5%
Plant Height (melon young plants; 0.2% aqueous solution): 4.1 cm
Dwarfing Rate (melon young plants; 0.2% aqueous solution): 37.9%
dwarfing effect (melon young plants; melon young plants, 0.05% and 0.2% aqueous solutions): effective
